biological target: ALK2 (Homo sapiens (Human), UniProt Q04771); assay: ALK2 inhibition, LanthaScreen Eu Kinase Binding Assay (ThermoFisher Scientific / Life Technologies); conditions: read-out: Measured Ki (IC50) Value for Compounds: IC50
Method: Biochemical assays to measure the inhibitory effects of the compounds were performed by ThermoFisher Scientific (Life Technologies). ALK2 inhibition was tested using LanthaScreen™ Eu Kinase Binding Assay screening protocol.

Sequence of ALK2 (Q04771 21-509): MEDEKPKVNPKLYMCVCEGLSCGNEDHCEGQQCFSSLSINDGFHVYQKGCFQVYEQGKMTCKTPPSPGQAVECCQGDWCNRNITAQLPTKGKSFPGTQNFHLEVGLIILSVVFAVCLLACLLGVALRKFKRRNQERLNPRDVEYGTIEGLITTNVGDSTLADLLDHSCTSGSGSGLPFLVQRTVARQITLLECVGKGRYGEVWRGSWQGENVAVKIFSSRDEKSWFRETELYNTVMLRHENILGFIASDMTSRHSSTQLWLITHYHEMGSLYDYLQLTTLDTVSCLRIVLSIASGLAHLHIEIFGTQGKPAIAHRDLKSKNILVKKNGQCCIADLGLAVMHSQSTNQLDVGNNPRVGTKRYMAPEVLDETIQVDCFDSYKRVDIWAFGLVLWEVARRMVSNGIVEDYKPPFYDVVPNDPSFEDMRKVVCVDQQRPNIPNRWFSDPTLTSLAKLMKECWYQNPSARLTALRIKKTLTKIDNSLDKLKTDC

SMILES	IC50
COc1cc(-n2cnc(Nc3cc4ccccc4c(N4CCC[C@@H]4CO)n3)c2)cc(OC)c1OC [Compound 369b, (R)-(1-(3-(1-(3,4,5-trimethoxyphenyl)-1H-imidazol-4-ylamino)isoquinolin-1-yl)pyrrolidin-2-yl)methanol]	100 to 1000 nM
COc1cc(-c2ccc(Nc3nc(N4CCC[C@H]4CO)nc4ccccc34)nc2)cc(OC)c1OC [Compound 370b, (S)-(1-(4-((5-(3,4,5-trimethoxyphenyl)pyridin-2-yl)amino)quinazolin-2-yl)pyrrolidin-2-yl)methanol]	> 1000 nM
COc1cc(-c2ccc(Nc3nc(N4CCC[C@H]4C(N)=O)nc4ccccc34)nc2)cc(OC)c1OC [Compound 371a, (S)-1-(4-((5-(3,4,5-trimethoxyphenyl)pyridin-2-yl)amino)quinazolin-2-yl)pyrrolidine-2-carboxamide]	> 1000 nM
COc1cc(-n2cnc(Nc3nc(N4CCC[C@@H]4CO)nc4cc(C#N)ccc34)c2)cc(OC)c1OC [Compound 372a, (R)-2-(2-(hydroxymethyl)pyrrolidin-1-yl)-4-((1-(3,4,5-trimethoxyphenyl)-1H-imidazol-4-yl)amino)quinazoline-7-carbonitrile]	< 100 nM
COc1cc(-n2cnc(Nc3nc(N4CCC[C@H]4C(N)=O)nc4c3c(C)nn4C)c2)cc(OC)c1OC [Compound 373c, (S)-1-(1,3-dimethyl-4-((1-(3,4,5-trimethoxyphenyl)-1H-imidazol-4-yl)amino)-1H-pyrazolo[3,4-d]pyrimidin-6-yl)pyrrolidine-2-carboxamide]	> 1000 nM
COc1cc(-n2cnc(Nc3nc(N4CCC[C@H]4CO)nc4c3c(C)nn4C)c2)cc(OC)c1OC [Compound 374a, (S)-(1-(1,3-dimethyl-4-((1-(3,4,5-trimethoxyphenyl)-1H-imidazol-4-yl)amino)-1H-pyrazolo[3,4-d]pyrimidin-6-yl)pyrrolidin-2-yl)methanol]	100 to 1000 nM
COc1cc(-n2cnc(Nc3nc(N4CCC[C@H]4CO)nc4cc(N5CCN(C)CC5)ccc34)c2)cc(OC)c1OC [Compound 375a, (S)-(1-(7-(4-methylpiperazin-1-yl)-4-((1-(3,4,5-trimethoxyphenyl)-1H-imidazol-4-yl)amino)quinazolin-2-yl)pyrrolidin-2-yl)methanol]	< 100 nM

Further lines, results first:

IC50	SMILES
< 100 nM	COc1cc(-n2cnc(Nc3nc(N4CCC[C@H]4CO)nc4cc(N5CCNCC5)ccc34)c2)cc(OC)c1OC [Compound 376b, (S)-(1-(7-(piperazin-1-yl)-4-((1-(3,4,5-trimethoxyphenyl)-1H-imidazol-4-yl)amino)quinazolin-2-yl)pyrrolidin-2-yl)methanol]
< 100 nM	COc1cc(-n2cnc(Nc3nc(N4CCC[C@H]4CO)c4c(C)nn(C)c4n3)c2)cc(OC)c1OC [Compound 377b, (S)-(1-(1,3-dimethyl-6-((1-(3,4,5-trimethoxyphenyl)-1H-imidazol-4-yl)amino)-1H-pyrazolo[3,4-d]pyrimidin-4-yl)pyrrolidin-2-yl)methanol]
< 100 nM	COc1cc(-n2cnc(Nc3nc(N4CCC[C@H]4CO)nc4cnccc34)c2)cc(OC)c1OC [Compound 378c, (S)-(1-(4-((1-(3,4,5-trimethoxyphenyl)-1H-imidazol-4-yl)amino)pyrido[3,4-d]pyrimidin-2-yl)pyrrolidin-2-yl)methanol]
< 100 nM	COc1cc(-n2cnc(Nc3nc(N4CCC[C@H]4C(N)=O)nc4cnccc34)c2)cc(OC)c1OC [Compound 379a, (S)-1-(4-((1-(3,4,5-trimethoxyphenyl)-1H-imidazol-4-yl)amino)pyrido[3,4-d]pyrimidin-2-yl)pyrrolidine-2-carboxamide]
< 100 nM	COc1cc(-n2cnc(Nc3nc(N4CC5(CC5)C[C@H]4CO)c4cccn4n3)c2)cc(OC)c1OC [Compound 380d, (S)-(5-(2-((1-(3,4,5-trimethoxyphenyl)-1H-imidazol-4-yl)amino)pyrrolo[2,1-f][1,2,4]triazin-4-yl)-5-azaspiro[2.4]heptan-6-yl)methanol]

— US11661426B2, “Imidazole-containing inhibitors of ALK2 kinase” (BioCryst Pharmaceuticals, Inc., priority 2017, dated 2023)
